Results published in patent US20060122260A1, “Intermediates for aromatic polyketides as selective anticancer and antiviral agents” (priority 2002, published 2006).
≈ marks a conversion by molar mass, not a printed value. Entries after “also recorded” stand apart in the source; their conditions may differ.

Tests used:
[1] = system: Canine parvovirus type 2 (CPV-d); assay: Parvovirus infectivity screening (animal virus model); format: cell-based; conditions: for antiviral activity against parvovirus (inhibition of infection of cells): drug added simultaneously with CPV, 24 h p.i.
[2] = system: herpes simplex (HSV); assay: Activity testing in human virus models: HSV; format: cell-based, herpes simplex virus; conditions: for activity against virus: HSV, concentrations tested 1 μM and 100 μM; for inhibition % 100 μM / inhibition at 1 µM: Herpes (HSV); for inhibition at 1 µM: Homo sapiens
Protocol: (§1) The results obtained from the parvovirus model encouraged us to carry out the bioactivity tests using human viruses as targets. Selected RNA- and DNA-viruses were tested; herpes simplex (HSV), adenovirus, influenza B, RS virus, cytomegalovirus (CMV), and CBV5 virus. […] The concentrations tested were 1 μM and 100 μM. The cytotoxic effect was not found using 1 μM of S2502 or S2507. Instead, 100 μM of S2502 was toxic to the cells used for CBV5 and HSV infection, and 100 μM of S2507 was toxic to the cells used for HSV infection.
(§2) S2507 and S2502 were further tested in human virus models: herpes simplex (HSV), adenovirus, influenza B, RS virus, cytomegalovirus and CBV5 virus. […] The compounds were active when administered simultaneously or before an infection (prophylactic) and half an hour after the infection. […] However, in HSV 100 μM concentration was toxic.

[3] = system: adenovirus; assay: Activity testing in human virus models: adenovirus; format: cell-based; conditions: for activity against virus: adenovirus, concentrations tested 1 μM and 100 μM; for inhibition at 1 µM / inhibition at 100 µM: unidentified adenovirus, Adeno
Protocol: as §1, §2

[4] = system: influenza B; assay: Activity testing in human virus models: influenza B; format: cell-based; conditions: for inhibition at 1 µM / inhibition at 100 µM: Influenza B virus, Influenza B; for activity against virus: influenza B, concentrations tested 1 μM and 100 μM
[5] = system: RS virus; assay: Activity testing in human virus models: RS virus; format: cell-based; conditions: for activity against virus: RS virus, concentrations tested 1 μM and 100 μM; for inhibition at 1 µM / inhibition at 100 µM: human respiratory syncytial virus, RSV
Protocol: as §1, §2

[6] = system: cytomegalovirus (CMV); assay: Activity testing in human virus models: cytomegalovirus; format: cell-based; conditions: for activity against virus: CMV, concentrations tested 1 μM and 100 μM; for inhibition at 1 µM / inhibition at 100 µM: Human betaherpesvirus 5, Cytomegalo
Protocol: as §1, §2

[7] = system: CBV5 virus; assay: Activity testing in human virus models: CBV5; format: cell-based; conditions: for inhibition at 1 µM: CBV5, 1 μM; for activity against virus: CBV5 virus, concentrations tested 1 μM and 100 μM
Protocol: as §1, §2

[8] = system: cells used for HSV infection; assay: Toxicity to cells used for HSV infection; format: cell-based; conditions: 100 μM
Protocol: as §1, §2

[9] = system: melanoma cell lines (MAL-ME-3M, M14, SK-MEL-5); assay: NCI 60-cell line panel, melanoma cell lines; format: cell-based, human; conditions: some melanoma cell lines
From the text: National Cancer Institute (NCI) tested both of the compounds in their 60-cell line panel (copy of their report available). NCI uses a 48-hour continuous drug exposure protocol. Cell viability and growth are estimated using a sulforhodamine B (SRB) protein assay. The screen is described on the web site: http://dtp.nci.nih.gov. […] However, a mean value of ED50 is at micro molar range against some melanoma cell lines (MAL-ME-3M, M14, SK-MEL-5).

[10] = system: mice; assay: In vivo toxicity, preliminary dose range finding study; conditions: single i.p. 100, 50, 25, 12.5 and 6.25 mg/kg, two weeks
Protocol: The drug was injected once i.p. at doses 100, 50, 25, 12.5 and 6.25 mg/kg to two mice at each dose level. The mice were observed daily and weighed every 3 to 5 days for two weeks.

[11] = pKa; format: physicochemical; conditions: comparable to acetic acid
[12] = Stability; format: physicochemical; conditions: for stability in purification process and bioassays: typical conditions used in the purification process and in bioassays
From the text: It is the methyl ester of the S2507 acid.

[13] = system: MES-SA; assay: Typical cytotoxicity screen, MES-SA
[14] = system: uninfected cells; assay: Cytotoxicity in the parvovirus model; conditions: for effect on uninfected cells: parvovirus model
[15] = system: MES-SA/Dx5; assay: Typical cytotoxicity screen, MES-SA/Dx5
[16] = system: control cultivations without virus; assay: Cytotoxic effect on cells in the human virus tests (control cultivations without virus); conditions: for cytotoxic effect: 1 μM; for tolerance of control cultivations without virus: utilized drug concentrations (100 and 1 μM)
[17] = system: cells used for CBV5 infection; assay: Toxicity to cells used for CBV5 infection; format: cell-based; conditions: 100 μM
Protocol: as §1

[18] = target: T1, human topoisomerase I (Homo sapiens, UniProt P11387); assay: Topoisomerase I drug screening kit; format: biochemical
T1 construct: purchased TopoGEN, Inc, Columbus, Ohio
T1 sequence (P11387 1-765): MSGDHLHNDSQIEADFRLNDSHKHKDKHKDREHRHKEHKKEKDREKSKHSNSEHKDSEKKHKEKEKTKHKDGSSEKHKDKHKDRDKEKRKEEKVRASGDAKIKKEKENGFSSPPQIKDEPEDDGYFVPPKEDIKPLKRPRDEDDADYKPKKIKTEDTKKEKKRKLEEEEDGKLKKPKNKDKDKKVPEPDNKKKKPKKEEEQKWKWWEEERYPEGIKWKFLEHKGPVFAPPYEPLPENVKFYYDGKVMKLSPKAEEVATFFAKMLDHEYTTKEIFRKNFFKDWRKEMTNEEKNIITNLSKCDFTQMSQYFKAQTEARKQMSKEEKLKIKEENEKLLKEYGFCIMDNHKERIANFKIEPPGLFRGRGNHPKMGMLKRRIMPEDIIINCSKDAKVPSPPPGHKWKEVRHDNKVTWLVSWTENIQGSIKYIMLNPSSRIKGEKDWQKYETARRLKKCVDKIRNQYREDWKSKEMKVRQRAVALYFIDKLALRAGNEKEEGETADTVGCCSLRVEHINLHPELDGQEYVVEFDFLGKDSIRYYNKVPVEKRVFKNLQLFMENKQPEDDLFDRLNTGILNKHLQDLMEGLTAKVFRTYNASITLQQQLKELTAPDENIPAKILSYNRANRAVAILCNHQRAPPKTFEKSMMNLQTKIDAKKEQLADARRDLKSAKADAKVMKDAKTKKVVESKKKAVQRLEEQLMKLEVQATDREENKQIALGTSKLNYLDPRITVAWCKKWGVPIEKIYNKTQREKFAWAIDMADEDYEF
Protocol: (§3) In order to understand the mechanism of anticancer activity, the inhibition of topoisomerases by S2502 was studied. The topoisomerase assays were done using Topoisomerase I and II drug screening kits with human topoisomerase I and II (p170 form) enzymes, respectively, according to the manufacturer's (TopoGEN, Inc, Columbus, Ohio) instructions. […] Minimal inhibitory concentrations were 25 μM against Topoisomerase 1 and 50 μM against Topoisomerase II.

[19] = target: T2, human topoisomerase II (p170 form) (Homo sapiens, UniProt P11388); assay: Topoisomerase II drug screening kit; format: biochemical
T2 construct: purchased TopoGEN, Inc, Columbus, Ohio
Protocol: as §3

T2 sequence (P11388 whole entry): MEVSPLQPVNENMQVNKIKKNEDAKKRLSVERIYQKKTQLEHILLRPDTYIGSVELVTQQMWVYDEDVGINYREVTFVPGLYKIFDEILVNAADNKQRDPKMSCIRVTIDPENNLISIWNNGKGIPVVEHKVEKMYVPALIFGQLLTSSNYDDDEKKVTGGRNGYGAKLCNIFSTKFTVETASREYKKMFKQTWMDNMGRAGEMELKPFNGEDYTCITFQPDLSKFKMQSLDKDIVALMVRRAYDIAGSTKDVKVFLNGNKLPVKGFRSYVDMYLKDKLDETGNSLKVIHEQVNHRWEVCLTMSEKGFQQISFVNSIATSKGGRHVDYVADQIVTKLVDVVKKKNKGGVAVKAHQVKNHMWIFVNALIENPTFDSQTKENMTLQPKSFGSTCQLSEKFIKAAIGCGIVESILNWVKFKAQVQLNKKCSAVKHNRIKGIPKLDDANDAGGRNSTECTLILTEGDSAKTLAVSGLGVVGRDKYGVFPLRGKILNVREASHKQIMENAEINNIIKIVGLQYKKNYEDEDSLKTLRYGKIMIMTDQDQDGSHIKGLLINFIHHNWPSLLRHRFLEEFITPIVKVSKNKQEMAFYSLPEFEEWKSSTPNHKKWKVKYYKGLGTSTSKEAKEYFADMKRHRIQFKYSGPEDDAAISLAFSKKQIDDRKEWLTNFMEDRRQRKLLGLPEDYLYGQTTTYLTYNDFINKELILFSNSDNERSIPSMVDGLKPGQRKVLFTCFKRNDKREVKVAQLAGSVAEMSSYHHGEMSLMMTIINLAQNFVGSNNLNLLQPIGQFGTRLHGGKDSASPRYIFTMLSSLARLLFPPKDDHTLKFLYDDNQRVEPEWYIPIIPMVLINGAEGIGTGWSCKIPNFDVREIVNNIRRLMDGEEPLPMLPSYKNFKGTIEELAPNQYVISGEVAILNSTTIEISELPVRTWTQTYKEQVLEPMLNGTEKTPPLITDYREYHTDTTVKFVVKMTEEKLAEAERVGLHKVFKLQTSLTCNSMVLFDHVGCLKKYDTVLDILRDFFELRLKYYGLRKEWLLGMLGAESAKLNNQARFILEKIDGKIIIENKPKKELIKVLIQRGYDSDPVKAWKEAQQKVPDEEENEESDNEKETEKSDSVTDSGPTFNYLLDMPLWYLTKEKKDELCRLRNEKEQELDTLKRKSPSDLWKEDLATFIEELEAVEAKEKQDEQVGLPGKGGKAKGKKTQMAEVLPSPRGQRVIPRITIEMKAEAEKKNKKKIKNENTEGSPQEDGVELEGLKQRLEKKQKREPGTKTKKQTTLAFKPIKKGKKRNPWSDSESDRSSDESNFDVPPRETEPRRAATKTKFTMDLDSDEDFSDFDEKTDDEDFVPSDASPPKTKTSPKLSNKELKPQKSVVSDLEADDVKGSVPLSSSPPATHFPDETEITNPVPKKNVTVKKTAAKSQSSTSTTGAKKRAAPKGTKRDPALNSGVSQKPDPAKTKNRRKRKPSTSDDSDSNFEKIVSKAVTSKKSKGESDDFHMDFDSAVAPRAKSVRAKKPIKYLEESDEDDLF

SMILES | antiviral activity against parvovirus (inhibition of infection of cells) [1] | activity against virus [2] | inhibition % 100 μM [2] | inhibition at 1 µM [2] | activity against virus [3] | inhibition at 1 µM [3] | inhibition at 100 µM [3] | inhibition at 1 µM [4] | inhibition at 100 µM [4] | activity against virus [4] | activity against virus [5] | inhibition at 1 µM [5] | inhibition at 100 µM [5] | activity against virus [6] | inhibition at 1 µM [6] | inhibition at 100 µM [6] | inhibition at 1 µM [7] | activity against virus [7] | toxicity to cells [8] | activity against melanoma cell lines [9] | other results
CC(=O)/C=C1/C=C2OC(CC(=O)O)Cc3cc4cccc(O)c4c(c32)O1 (stereo not drawn) [S2507] | remarkable antiviral activity; also recorded: partially inhibit the infection | active | toxic | 100% | active | 90% | 100% | 100% | 100% | active | active | 100% | 100% | only S2502 was active against CMV | 0% | 0% | 100% | active | toxic | active against some melanoma cell lines | effect on parvovirus over concentration range ([1]; 5 nM to 500 nM): dose-activity correlation; inhibition at 100 µM ([7]; CBV5, 100 μM): 100%; effect on the weight of the mice [10]: no effect; outer signs of general illness [10]: no outer signs of general illness were noticed; pKa [11]: ~4.6; stability under normal laboratory conditions [12]: stable and non-reactive; stability in purification process and bioassays [12]: stable; solubility to water at pH 7: slightly soluble; anticancer activity (cytotoxicity screen) [13]: fail to show anticancer activity; cytotoxic properties ([14]; highest concentration studied, 500 nM): did not exhibit cytotoxic properties; effect on uninfected cells [14]: without disturbing the uninfected cells; anticancer activity (cytotoxicity screen) [15]: fail to show anticancer activity; cytotoxic effect [16]: not found; tolerance of control cultivations without virus [16]: tolerated well
COC(=O)CC1Cc2cc3cccc(O)c3c3c2C(=C/C(=C/C(C)=O)O3)O1 (stereo not drawn) [S2502] | remarkable antiviral activity; also recorded: partially inhibit the infection | active | toxic | 100% | active | 90% | 100% | 100% | 100% | active | active | 100% | 100% | active | 100% | 100% | 100% | active | toxic | active against some melanoma cell lines | inhibition % 100 μM ([7]; CBV5, 100 μM): toxic; toxicity to cells [17]: toxic; Minimal inhibitory concentration [18]: 25 µM (≈ 9.16 µg/mL); Minimal inhibitory concentration [19]: 50 µM (≈ 18.3 µg/mL); stability under normal laboratory conditions [12]: stable and non-reactive; stability in purification process and bioassays [12]: stable; solubility to water at pH 7: not soluble; anticancer activity (cytotoxicity screen) [13]: fail to show anticancer activity; effect on uninfected cells [14]: without disturbing the uninfected cells; anticancer activity (cytotoxicity screen) [15]: fail to show anticancer activity; cytotoxic effect [16]: not found; tolerance of control cultivations without virus [16]: tolerated well
